Where two headings read alike, the source gives them in different places.
B1: mepolizumab: eosinophil lowering drug; monoclonal antibody administered subcutaneously for asthma (antibody, chains of the INN, looked up, V domains shown)
VH: QVTLRESGPALVKPTQTLTLTCTVSGFSLTSYSVHWVRQPPGKGLEWLGVIWASGGTDYNSALMSRLSISKDTSRNQVVLTMTNMDPVDTATYYCARDPPSSLLRLDYWGRGTPVTVSS
VL: DIVMTQSPDSLAVSLGERATINCKSSQSLLNSGNQKNYLAWYQQKPGQPPKLLIYGASTRESGVPDRFSGSGSGTDFTLTISSLQAEDVAVYYCQNVHSFPFTFGGGTKLEIK

Assays:
[1] = system: moderate to severe asthma; assay: Phase II dose finding study in moderate to severe asthma (EXHALE)
[2] = system: subjects with eosinophilic chronic rhinosinusitis with nasal polyps; settings: cited from earlier work; for total polyp score (TPS), mean value: baseline 5.29
[3] = system: Chronic rhinosinusitis with nasal polyps; settings: in vivo; cited from earlier work
[4] = 150 mg twice daily, 6 month trial
[5] = 150 mg twice daily, 12 subjects with a history of asthma

Molecule | safety and tolerability profile ([1]; Phase II, compared with placebo) | eosinophils in blood and airways ([1]; Phase II, moderate to severe asthma) | placebo-corrected change from baseline in pre-bronchodilator (pre-BD) FEV1 ([1]; across the dose groups at various timepoints) | total polyp score (TPS), mean value ([2]; 150 mg twice daily, 3 months) | SNOT-22 (rhinosinusitis symptoms) [2, 4] | Sniffin Sticks olfaction test [2, 4] | sinus CT score [2, 4] | total polyp score (TPS), mean value ([2]; 150 mg twice daily, 6 months) | ACQ6 value [2, 5] | FEV1 value [2, 5] | lowering of the AEC (blood absolute eosinophil count) ([2]; dexpramipexole 150 mg twice daily, after 6 months, 16 subjects) [%] | efficacy in chronic rhinosinusitis with nasal polyps [3]
CCCN[C@@H]1CCc2nc(N)sc2C1 [dexpramipexole, (6R)-2-amino-4,5,6,7-tetrahydro-6-(propylamino)benzothiazole] | tolerability profile of dexpramipexole in this Phase II study was similar to | significant, dose-dependent, and durable reductions | clinically meaningful, placebo-corrected, change from baseline in pre- | 5.50 | not improved | not improved | not improved | 5.42 | unchanged | unchanged | 94 | –
B1 | – | – | – | – | – | – | – | – | – | – | – | have shown efficacy
